Common to all, as to assay type: cell-based, mouse
One data set deals with Ube3a-YFP protein. Put plainly: Western blot of Ube3a-YFP protein in cortical neurons. The conditions noted are these: 10 μM for 72 h. How it is done:
Embryonic day 13.5 to 15.5 mice that encode the paternal Ube3a-YFP transgene or Ube3a^m−/p+ mice (i.e., AS model mice) were identified and primary cortical neuronal cultures were obtained and plated in 6 well plates. […] To assess Ube3a-YFP protein levels, 7.5 ug of total protein lysates from Ube3a-YFP neurons were separated by 8% SDS-polyacrylamide gel electrophoresis, proteins were transferred to nitrocellulose membranes and immunoblotting was performed using a rabbit anti-GFP antibody (Novus) and Alexa Fluor 680 goat anti-rabbit IgG (Invitrogen). Ube3a-YFP protein bands were visualized by a LiCOR system and to control for protein loading, Ube3a-YFP protein levels were normalized to actin level detected in each sample. To assess Ube3a protein level, immunoblotting was performed using rabbit anti-Ube3a antibody (Abeam) and Alexa Fluor 680 goat anti-rabbit IgG (Invitrogen).
E13.5-15.5 primary cortical neurons from Ube3a-YFP, Ube3a-deficient, or wild-type mice were plated in 6-well plates. At DIV7, neurons were treated with drug or 0.1% DMSO for 72 h, and then total protein lysates were obtained by lysis buffer (1% Triton X-100, 5 mM EDTA, 0.15M NaCl, 10 mM Tris-HCl, pH 7.5, phosphatase inhibitor cocktails 1, protease inhibitor cocktail). […] To control for protein loading, UBE3A-YFP or UBE3A protein levels were normalized to actin levels detected in each sample.
Background: A western blot detects proteins with antibodies after separation by electrophoresis.

The test system of a further data set is cultured neurons. Put plainly: Neuron health / cell death in treated cultures.
The test system of data set [1] is Ube3a, Ube3a-ATS, Snrpn mRNA. Put plainly: Quantitative PCR of Ube3a, Ube3a-ATS and Snrpn in Ube3a m-/p+ neurons. The conditions noted are these: 300 nM, cultured neurons from Ube3a m−/p+ mice. How it is done:
First strand cDNA synthesis was performed on 500 ng-2 μg total RNA using Superscript III reverse transcriptase (Invitrogen) primed with random hexamers. qPCR reactions used SYBR green (Invitrogen) and were run on a Rotorgene 3000 (Corbett Research). Standard curves and Ct-values were generated using Rotorgene analysis software version 6.0. Expression of Ube3a, Ube3a-ATS, Ipw and Snrpn were determined after normalization of each cDNA sample to expression levels of the housekeeping genes Rp122 and Actb.

For `CCc1c2c(nc3ccc(OC(=O)N4CCC(N5CCCCC5)CC4)cc13)-c1cc3c(c(=O)n1C2)COC(=O)[C@]3(O)CC` [Irinotecan], the “paternal Ube3a-YFP protein level (immunoblot)” value in the data set with Ube3a-YFP protein was “significantly increases paternal Ube3a-YFP protein levels”. The “neuron density and health (DAPI counterstain)” value in the data set on cultured neurons (10 μM for 72 hr) is “Neuron density and health is similar”. Also, in the data set on cultured neurons (effective concentrations, cultures), the “pyknotic nuclei versus vehicle” value is “a similar number of pyknotic nuclei”.
With `CC[C@@]1(O)C(=O)OCc2c1cc1n(c2=O)Cc2cc3c(CN(C)C)c(O)ccc3nc2-1` [Topotecan], in data set [1], the “Ube3a mRNA expression” value is on record as “upregulated expression of Ube3a”; the “Ube3a-ATS and Snrpn mRNA expression” value was “downregulating expression of Ube3a-ATS and Snrpn”.

(Values after US10301630B2, “Methods and compositions for unsilencing imprinted genes” (The University of North Carolina at Chapel Hill, priority 2010, dated 2019).)
